Assay results: patent publication US20210205225A1, “BIOAVAILABLE ORAL DOSAGE FORMS” (PTC Therapeutics, Inc., priority 2018, published 2021)
≈ marks a conversion by molar mass, not a printed value.

Experiments:
[1] = Clinical BA/BE and food effect study, PVP SDI Formulation tablets vs Lipid Formulation capsules, PK; format: in vivo, human
Procedure: The PVP SDI Formulation tablets prepared in Example 13 were compared to the Lipid Formulation capsules prepared in Example 7 in a clinical BA/BE (bioequivalence/bioavailability) study that evaluated the effect of food on the bioavailability of the PVP SDI Formulation tablets.
(§1) Compound 1 was administered as a single-dose in Lipid Formulation capsules or as PVP SDI Formulation tablets. The primary objective of the study was to determine the comparative single-dose PK and safety profiles of Compound 1 administered in the 2 formulations. The study was also aimed to study of the food effect on the PK and safety profiles for the PVP SDI Formulation tablet.
(§2) Subjects in the study were enrolled in 3 stages. In Stage 1, 24 subjects were randomly accrued into 3 cohorts of 8 subjects receiving Compound 1 in both the Lipid Formulation capsule and the PVP SDI Formulation tablet at dose levels of 0.5 mg/kg, 1 mg/kg, and 2 mg/kg. In Stage 2, 24 subjects were accrued in 3 cohorts of 8 subjects with each cohort receiving a sequentially higher doses of Compound 1 in the PVP SDI Formulation tablet at dose levels of 400, 800, and 1600 mg. An additional 12 subjects (6 males and 6 females) were enrolled in Stage 3 to evaluate the effect of food on the PK of Compound 1 when administered at 400 mg and 1000 mg in the PVP SDI Formulation tablet.
(§3) During the study, data regarding adverse events, vital signs, blood counts, coagulation assessments, blood chemistry determinations, urinalyses, and ECGs were collected at baseline and repeatedly over 72 hours after administration of the study medication, and again at a follow-up visit 7 days after the last study treatment. Blood samples for assessment of plasma Compound 1 concentrations were collected at multiple timepoints. Compound 1 concentrations were analyzed using LC-MS/MS, validated for human plasma.

[2] = Phase 1 single-dose lipid capsule PK and food effect study; format: in vivo, human
Description: (§4) Compound 1 has been evaluated in a Phase 1, randomized, placebo-controlled, escalating, single-dose, safety, tolerability, PK, and food effect study in healthy adult volunteers. Compound 1 was provided in lipid-filled gelatin capsules. The primary objective of the study was to determine a dose range for Compound 1 that safely achieved pharmacologically active target plasma concentrations (as determined from xenograft studies) and that was appropriate for use in a subsequent multiple-dose study.
(§5) Subjects in the study were enrolled in 2 stages. In Stage 1, 40 subjects were accrued in 5 cohorts of 8 subjects with each cohort receiving a sequentially higher single dose of Compound 1 at dose levels of 0.03, 0.1, 0.3, 1, and 3 mg/kg. Within a cohort, 6 subjects (3 males and 3 females) received Compound 1 and 2 subjects (1 male and 1 female) received placebo. An additional 12 subjects (6 males and 6 females) were enrolled in Stage 2 to evaluate the effect of food on the PK of Compound 1.
as §3, with “During both Stages 1 and 2 of” for “During”, “In both Stages 1 and 2, blood” for “Blood”, “plasma. Blood for measurement of plasma DHODH levels are collected at multiple time points. Plasma DHODH concentrations are analyzed using a clinically validated ELISA (R&D Systems). Similarly, blood for measurement of plasma VEGF-A levels was collected at multiple time points. Plasma VEGF-A concentrations were analyzed using a clinically validated ELISA (R&D Systems).” for “plasma.”

[3] = Phase 1 single-dose lipid capsule study, safety and tolerability; format: in vivo, human
Description: as §4, §5
as §3, with “During both Stages 1 and 2 of” for “During”, “In both Stages 1 and 2, blood” for “Blood”, “plasma. Blood for measurement of plasma DHODH levels are collected at multiple time points. Plasma DHODH concentrations are analyzed using a clinically validated ELISA (R&D Systems). Similarly, blood for measurement of plasma VEGF-A levels was collected at multiple time points. Plasma VEGF-A concentrations were analyzed using a clinically validated ELISA (R&D Systems).” for “plasma.”

[4] = Clinical BA/BE and food effect study, safety; format: in vivo, human
Procedure: as §1, §2, §3

[5] = Solubility of the SDI and a surfactant (5% w/w) in aqueous solution, saturated, RT; format: physicochemical
Procedure: Aqueous suspensions (5% w/w) of the crystalline Compound 1b and the amorphous SDI were prepared in saturated solutions with surfactants selected from SDS, Poloxamer 188, Poloxamer 407, Gelucire 44/14 and Gelucire 50/13.
The solution was not sufficiently translucent to determine when sufficient material was added to provide the saturated solution. As a result, the solution was allowed to stand so that the excess Gelucire settled, and the supernatant was recovered and used for the solubility study. The exact concentration of Gelucire 50/13 in the solution was unknown.

[6] = solid formulation, higher doses
[7] = saturated in 5% w/w Gelucire 44/14 aqueous solution, 0 hrs
[8] = saturated in 5% w/w Gelucire 44/14 aqueous solution, 24 hrs
[9] = saturated in 5% w/w Poloxamer 188 aqueous solution, 0 hrs
[10] = saturated in 5% w/w SDS aqueous solution, 0 hrs
[11] = saturated in 5% w/w SDS aqueous solution, 24 hrs
[12] = saturated in Gelucire 50/13 supernatant solution, 0 hrs
[13] = saturated in Gelucire 50/13 supernatant solution, 24 hrs

COc1ccc([C@H]2c3[nH]c4ccc(Cl)cc4c3CCN2C(=O)Oc2ccc(Cl)cc2)cc1 [Compound 1, 4-chlorophenyl (S)-6-chloro-1-(4-methoxyphenyl)-1,3,4,9-tetrahydro-2H-pyrido[3,4-b]indole-2-carboxylate]
mean Cmax after a high-fat, high-calorie meal ([1]; PVP SDI Formulation tablet, fed vs fasted): increased | increase of mean Cmax and AUC by high-fat, high-calorie meal ([1]; Stage 3, 400 mg or 1000 mg, PVP SDI Formulation tablet): about 100% | half-life ([1]; human, plasma, oral, PVP SDI Formulation tablet, Stage 2): 38 to 65 h | Tmax ([1]; human, plasma, oral, single dose): 3 to 7 h | concentrations still evident in plasma [1, 6]: ≥ 168 h | lag time to appearance in plasma [1, 6]: about 30 minutes | persistence of concentrations in plasma [1, 6]: ≥ 72 h | increases in mean Cmax values with dose ([2]; Stage 1, 0.03-3 mg/kg): generally dose proportional | increase of mean Cmax by high-fat, high-calorie meal ([2]; Stage 2, 1 mg/kg): about 40% | Tmax ([2]; both sexes, human, plasma, oral, lipid capsules, single dose): 3 to 6 h | half-life ([2]; both sexes, human, plasma, oral, lipid capsules, single dose, read-out: terminal half-life (t1/2β)): 28 to 56 h | low concentrations still evident in plasma ([2]; lipid capsules, 3.0-mg/kg dose): ≥ 168 h | persistence of concentrations in plasma ([2]; lipid capsules, doses 0.30 mg/kg): ≥ 72 h | mean Cmax after a high-fat, high-calorie meal ([2]; lipid capsules, fed vs fasted): increased | lag time to appearance in plasma ([2]; lipid-filled gelatin capsules, single dose): about 30 minutes | treatment-emergent adverse event: nausea, subjects receiving Compound 1 ([3]; Stage 1): 4 subjects | treatment-emergent adverse event: headache ([3]; Stage 1, 40 subjects dosed): 9 episodes in 8 subjects | adverse event: back pain ([3]; Stage 2): 2 episodes in 2 subjects | adverse event: headaches ([3]; Stage 2): 3 episodes in 3 subjects | severity of adverse events ([3]; all except 1 case of Grade 2 diarrhea at 1 mg/kg fasted, Stage 2): Grade 1 | hematology, coagulation, chemistry parameters ([3]; both stages): No clinically significant changes | physical examinations, vital sign measurements, ECGs ([3]; both stages): no safety concerns | deaths or serious adverse events ([3]; in vivo): No deaths or serious adverse events | tolerability ([3]; single dose, lipid capsules): generally well tolerated | laboratory abnormality in 1 subject ([4]; Stage 1, 2 mg/kg in the Lipid Capsule Formulation, considered unlikely to be drug related): Grade 3 elevation of serum creatine kinase | physical examinations, vital sign measurements, ECGs ([4]; all 3 stages): no safety concerns | deaths or serious adverse events ([4]; human, in vivo): No deaths or serious adverse events | tolerability ([4]; single dose, lipid capsules or PVP SDI tablets): generally well tolerated

COc1ccc([C@H]2c3[nH]c4ccc(Cl)cc4c3CCN2C(=O)Oc2ccc(Cl)cc2)cc1 [Compound 1b]
Solubility [5, 7]: 14.7 µg/mL (≈ 31.5 µM) | Solubility [5, 8]: 23.6 µg/mL (≈ 50.5 µM) | Solubility [5, 9]: 0.2 µg/mL (≈ 0.428 µM) | Solubility [5, 10]: 2.4 µg/mL (≈ 5.14 µM) | Solubility [5, 11]: 6.2 µg/mL (≈ 13.3 µM) | Solubility [5, 12]: 7.8 µg/mL (≈ 16.7 µM) | Solubility [5, 13]: 23.0 µg/mL (≈ 49.2 µM)

COc1ccc([C@H]2c3[nH]c4ccc(Cl)cc4c3CCN2C(=O)Oc2ccc(Cl)cc2)cc1 [Sample 2]
solubility at 24 h ([5]; 5% w/w Poloxamer 188 aqueous solution, aqueous with cosolvent or surfactant or cyclodextrin, thermodynamic from solid, saturated in 5% w/w Poloxamer 188 aqueous solution, 24 hrs): 4.3 µg/mL (≈ 9.2 µM) | Solubility [5, 7]: 142.5 µg/mL (≈ 305 µM) | Solubility [5, 8]: 58.4 µg/mL (≈ 125 µM) | Solubility [5, 9]: 0.7 µg/mL (≈ 1.5 µM) | Solubility [5, 10]: 224.7 µg/mL (≈ 481 µM) | Solubility [5, 11]: 32.4 µg/mL (≈ 69.3 µM) | Solubility [5, 12]: 677.4 µg/mL (≈ 1450 µM) | Solubility [5, 13]: 371.5 µg/mL (≈ 795 µM)
